From patent US8575178B2, “Isothiazolo-pyrimidinedione derivatives as TRPA1 modulators” (Glenmark Pharmaceuticals S.A., priority 2009, dated 2013)

Key:
human TRPA1 = biological target: T1, human TRPA1 (Homo sapiens, UniProt O75762); assay: 45Calcium uptake assay, inhibition of AITC induced calcium uptake in human TRPA1 expressing CHO cells; type: cell-based; settings: AITC 30 μM; for inhibition at 1 µM: 1.0 μM compound, read-out: human TRPA1 Percentage inhibition at 1.0 μM; for inhibition at 10 µM: 10.0 μM compound, read-out: human TRPA1 Percentage inhibition at 10.0 μM
T1 construct: expressed in transfected cells; host or cells: CHO cells (G-418 selection)
T1 sequence (O75762 whole entry): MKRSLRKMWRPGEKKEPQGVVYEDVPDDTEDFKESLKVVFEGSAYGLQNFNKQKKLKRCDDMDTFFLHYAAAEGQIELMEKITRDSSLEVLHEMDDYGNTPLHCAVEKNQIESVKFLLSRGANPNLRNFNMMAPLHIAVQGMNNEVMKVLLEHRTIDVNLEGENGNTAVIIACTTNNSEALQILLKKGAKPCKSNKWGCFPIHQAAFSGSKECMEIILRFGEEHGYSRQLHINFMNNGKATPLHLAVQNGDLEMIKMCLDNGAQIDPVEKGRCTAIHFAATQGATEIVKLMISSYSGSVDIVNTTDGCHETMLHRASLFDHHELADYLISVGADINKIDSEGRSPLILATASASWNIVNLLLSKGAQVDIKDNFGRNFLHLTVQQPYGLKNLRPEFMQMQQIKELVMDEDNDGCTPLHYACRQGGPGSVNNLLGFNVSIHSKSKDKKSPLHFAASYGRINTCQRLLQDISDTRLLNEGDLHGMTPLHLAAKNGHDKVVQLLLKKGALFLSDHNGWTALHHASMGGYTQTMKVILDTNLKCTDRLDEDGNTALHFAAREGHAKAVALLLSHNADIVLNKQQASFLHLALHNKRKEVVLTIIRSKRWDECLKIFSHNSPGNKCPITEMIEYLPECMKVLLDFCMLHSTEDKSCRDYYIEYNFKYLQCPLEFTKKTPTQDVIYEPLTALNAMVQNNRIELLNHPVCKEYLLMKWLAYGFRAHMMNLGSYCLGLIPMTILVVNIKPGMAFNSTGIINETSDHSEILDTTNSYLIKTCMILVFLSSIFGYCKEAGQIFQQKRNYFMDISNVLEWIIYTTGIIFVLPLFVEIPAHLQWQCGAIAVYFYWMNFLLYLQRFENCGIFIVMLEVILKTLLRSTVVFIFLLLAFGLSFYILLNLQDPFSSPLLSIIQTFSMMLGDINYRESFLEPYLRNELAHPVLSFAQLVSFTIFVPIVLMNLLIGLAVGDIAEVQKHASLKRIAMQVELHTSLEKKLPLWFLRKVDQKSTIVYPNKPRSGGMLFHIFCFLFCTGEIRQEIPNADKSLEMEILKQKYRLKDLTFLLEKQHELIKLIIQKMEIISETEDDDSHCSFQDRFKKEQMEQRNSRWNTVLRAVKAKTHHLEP
Text: (§1) The illustrative examples of the present invention are screened for TRPA1 activity according to a modified procedure described in (a) Tóth, A. et al. Life Sciences, 2003, 73, 487-498. (b) McNamara C, R. et al, Proc. Natl. Acad. Sci. U.S.A., 2007, 104, 13525-13530. The screening of the compounds can be carried out by other methods and procedures known to persons skilled in the art.
(§2) Screening for TRPA1 Antagonist Using the ^45Calcium Uptake Assay:
(§3) The inhibition of TRPA1 receptor activation was measured as inhibition of allyl isothiocyanate (AITC) induced cellular uptake of radioactive calcium.
(§4) Test compounds were dissolved in 100% DMSO to prepare 10 mM stock and then diluted using plain medium with 0.1% BSA and 1.8 mM CaCl2 to get the desired concentration. The final concentration of DMSO in the reaction was 0.5% (v/v). Human TRPA1 expressing CHO cells were grown in F-12 DMEM medium with 10% FBS, 1% penicillin-streptomycin solution, and 400 μg/ml of G-418. Rat TRPA1 expressing CHO cells were grown in F-12 DMEM medium with 10% FBS, 1% penicillin-streptomycin solution, and 400 μg/ml of Zeocin. Cells were seeded 24 h prior to the assay in 96 well plates so as to get ˜50,000 cells per well on the day of experiment. Cells were treated with the test compounds for 10 minutes followed by the addition of AITC at a final concentration of 30 μM (for human TRPA1) and/or 10 μM (for rat TRPA1) and 5 μCi/ml ^45Ca^+2 for 3 minutes. Cells were washed and lysed using a buffer containing 1% Triton X-100, 0.1% deoxycholate and 0.1% SDS. Radioactivity in the lysate was measured in a Packard TopCount after addition of liquid scintillant. (Toth et al, Life Sciences (2003) 73, 487-498; McNamara C R et al, Proceedings of the National Academy of Sciences, (2007) 104, 13525-13530).
(§5) Concentration response curves were plotted as a % of maximal response obtained in the absence of test antagonist. IC50 values can be calculated from concentration response curve by nonlinear regression analysis using GraphPad PRISM software.

rat TRPA1 = biological target: T2, rat TRPA1 (Rattus norvegicus, UniProt Q6RI86); assay: 45Calcium uptake assay, inhibition of AITC induced calcium uptake in rat TRPA1 expressing CHO cells; type: cell-based; settings: AITC 10 μM; for inhibition at 1 µM: 1.0 μM compound, read-out: rat TRPA1 Percentage inhibition at 1.0 μM; for inhibition at 10 µM: 10.0 μM compound, read-out: rat TRPA1 Percentage inhibition at 10.0 μM
T2 construct: expressed in transfected cells; host or cells: CHO cells (Zeocin selection)
T2 sequence (Q6RI86 whole entry): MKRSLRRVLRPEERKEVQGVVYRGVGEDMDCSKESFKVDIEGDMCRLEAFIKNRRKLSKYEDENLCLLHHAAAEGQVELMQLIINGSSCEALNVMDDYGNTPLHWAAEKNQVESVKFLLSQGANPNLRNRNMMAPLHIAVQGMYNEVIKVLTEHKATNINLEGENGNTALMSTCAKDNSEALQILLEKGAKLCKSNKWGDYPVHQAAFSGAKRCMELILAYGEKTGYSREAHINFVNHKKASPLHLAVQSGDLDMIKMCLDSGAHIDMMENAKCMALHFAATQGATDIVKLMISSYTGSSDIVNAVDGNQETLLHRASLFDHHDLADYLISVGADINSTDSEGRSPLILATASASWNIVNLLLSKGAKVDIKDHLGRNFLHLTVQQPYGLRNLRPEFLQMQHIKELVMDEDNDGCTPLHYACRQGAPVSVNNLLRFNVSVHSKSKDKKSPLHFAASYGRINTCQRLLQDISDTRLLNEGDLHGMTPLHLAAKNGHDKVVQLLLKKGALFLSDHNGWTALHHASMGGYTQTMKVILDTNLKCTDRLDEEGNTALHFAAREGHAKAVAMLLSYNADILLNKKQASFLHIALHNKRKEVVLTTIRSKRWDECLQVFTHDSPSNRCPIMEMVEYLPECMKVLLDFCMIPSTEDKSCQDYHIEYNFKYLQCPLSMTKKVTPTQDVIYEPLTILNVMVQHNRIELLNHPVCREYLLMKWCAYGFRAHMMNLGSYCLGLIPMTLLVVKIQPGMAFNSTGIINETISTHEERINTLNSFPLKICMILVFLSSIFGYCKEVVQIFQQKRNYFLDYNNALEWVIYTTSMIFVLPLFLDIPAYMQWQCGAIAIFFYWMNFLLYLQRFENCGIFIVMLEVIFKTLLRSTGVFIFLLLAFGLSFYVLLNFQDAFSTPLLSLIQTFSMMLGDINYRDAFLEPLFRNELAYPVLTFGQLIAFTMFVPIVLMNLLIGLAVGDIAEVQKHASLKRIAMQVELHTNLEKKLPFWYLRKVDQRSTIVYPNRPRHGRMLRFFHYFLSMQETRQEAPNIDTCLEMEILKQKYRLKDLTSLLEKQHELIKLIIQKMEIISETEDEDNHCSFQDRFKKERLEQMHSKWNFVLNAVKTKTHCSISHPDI
Text: as §1, §2, §3, §4, §5

| SMILES | inhibition at 1 µM (human TRPA1) [%] | inhibition at 10 µM (human TRPA1) [%] | IC50 (human TRPA1) [nM] | inhibition at 1 µM (rat TRPA1) [%] | inhibition at 10 µM (rat TRPA1) [%] | IC50 (rat TRPA1) [nM] |
| --- | --- | --- | --- | --- | --- | --- |
| Cn1c(=O)c2c(CC(=O)Nc3nc(-c4ccc(C(F)(F)F)c(F)c4)cs3)snc2n(C)c1=O [Example 4, 2-(5,7-Dimethyl-4,6-dioxo-4,5,6,7-tetrahydro[1,2]thiazolo[3,4-d]pyrimidin-3-yl)-N-{4-[3-fluoro-4-(trifluoromethyl)phenyl]-1,3-thiazol-2-yl}acetamide] | 99.8 | 100 | < 50 | 72.2 | 100 |  |
| Cn1c(=O)c2c(CC(=O)Nc3nc(-c4cccc(C(F)(F)F)c4F)cs3)snc2n(C)c1=O [Example 5, 2-(5,7-Dimethyl-4,6-dioxo-4,5,6,7-tetrahydro[1,2]thiazolo[3,4-d]pyrimidin-3-yl)-N-{4-[2-fluoro-3-(trifluoromethyl)phenyl]-1,3-thiazol-2-yl}acetamide] | 98.1 | 99.1 | < 50 | 95.6 | 98.5 |  |
| Cn1c(=O)c2c(CC(=O)Nc3nc(-c4ccc(OC(F)(F)F)c(F)c4)cs3)snc2n(C)c1=O [Example 7, 2-(5,7-Dimethyl-4,6-dioxo-4,5,6,7-tetrahydro[1,2]thiazolo[3,4-c]pyrimidin-3-yl)-N-{4-[3-fluoro-4-(trifluoromethoxy)phenyl]-1,3-thiazol-2-yl}acetamide] | 100 | 99.5 | < 50 | 79.4 | 100 | > 100 |
| Cn1c(=O)c2c(CC(=O)Nc3nc(-c4ccc(F)c(C(F)(F)F)c4F)cs3)snc2n(C)c1=O [Example 9, N-{4-[2,4-Difluoro-3-(trifluoromethyl)phenyl]-1,3-thiazol-2-yl}-2-(5,7-dimethyl-4,6-dioxo-4,5,6,7-tetrahydro[1,2]thiazolo[3,4-d]pyrimidin-3-yl)acetamide] | 98.4 | 98.1 | < 50 | 94.7 | 94.1 |  |
| Cn1c(=O)c2c(CC(=O)Nc3nc(-c4cc(F)c(C(F)(F)F)c(F)c4)cs3)snc2n(C)c1=O [Example 10, N-{4-[3,5-Difluoro-4-(trifluoromethyl)phenyl]-1,3-thiazol-2-yl}-2-(5,7-dimethyl-4,6-dioxo-4,5,6,7-tetrahydro[1,2]thiazolo[3,4-d]pyrimidin-3-yl)acetamide] | 99.9 | 100 |  | 35.2 | 68.4 |  |
| Cn1c(=O)c2c(CC(=O)Nc3nc(-c4ccc(Cl)cc4)cs3)nsc2n(C)c1=O [Example 12, N-[4-(4-Chlorophenyl)-1,3-thiazol-2-yl]-2-(5,7-dimethyl-4,6-dioxo-4,5,6,7-tetrahydro[1,2]thiazolo[5,4-d]pyrimidin-3-yl)acetamide] | 98.4 | 99.2 | < 50 | 94.6 | 99.5 | > 100 |
| Cn1c(=O)c2c(CC(=O)Nc3nc(-c4cccc(C(F)(F)F)c4)cs3)nsc2n(C)c1=O [Example 13, 2-(5,7-Dimethyl-4,6-dioxo-4,5,6,7-tetrahydro[1,2]thiazolo[5,4-d]pyrimidin-3-yl)-N-{4-[3-(trifluoromethyl)phenyl]-1,3-thiazol-2-yl}acetamide] | 99.7 | 99.8 | < 50 | 99.3 | 99.3 |  |
| Cn1c(=O)c2c(CC(=O)Nc3nc(-c4ccc(C(F)(F)F)c(F)c4)cs3)nsc2n(C)c1=O [Example 19, 2-(5,7-Dimethyl-4,6-dioxo-4,5,6,7-tetrahydro[1,2]thiazolo[5,4-d]pyrimidin-3-yl)-N-{4-[3-fluoro-4-(trifluoromethyl)phenyl]-1,3-thiazol-2-yl}acetamide] | 99.7 | 100 | < 50 | 99.5 | 99.3 | < 50 |
| Cn1c(=O)c2c(CC(=O)Nc3nc(-c4ccc(F)c(C(F)(F)F)c4)cs3)nsc2n(C)c1=O [Example 20, 2-(5,7-Dimethyl-4,6-dioxo-4,5,6,7-tetrahydro[1,2]thiazolo[5,4-d]pyrimidin-3-yl)-N-{4-[4-fluoro-3-(trifluoromethyl)phenyl]-1,3-thiazol-2-yl}acetamide] | 99.6 | 99.8 | < 50 | 99.7 | 100 | < 50 |
| Cn1c(=O)c2c(CC(=O)Nc3nc(-c4ccc(C(F)(F)F)cc4F)cs3)nsc2n(C)c1=O [Example 21, 2-(5,7-Dimethyl-4,6-dioxo-4,5,6,7-tetrahydro[1,2]thiazolo[5,4-d]pyrimidin-3-yl)-N-{4-[2-fluoro-4-(trifluoromethyl)phenyl]-1,3-thiazol-2-yl}acetamide] | 99.5 | 100 | < 50 | 100 | 100 | < 50 |

More lines, now with the values ahead:

| inhibition at 1 µM (human TRPA1) [%] | inhibition at 10 µM (human TRPA1) [%] | IC50 (human TRPA1) [nM] | inhibition at 1 µM (rat TRPA1) [%] | inhibition at 10 µM (rat TRPA1) [%] | IC50 (rat TRPA1) [nM] | SMILES |
| --- | --- | --- | --- | --- | --- | --- |
| 95.2 | 100 | < 50 | 71.3 | 100 | > 100 | Cn1c(=O)c2c(CC(=O)Nc3nc(-c4cccc(C(F)(F)F)c4)cs3)snc2n(C)c1=O [Example 1, 2-(5,7-Dimethyl-4,6-dioxo-4,5,6,7-tetrahydro[1,2]thiazolo[3,4-d]pyrimidin-3-yl)-N-{4-[3-(trifluoromethyl)phenyl]-1,3-thiazol-2-yl}acetamide] |
| 99.7 | 100 | < 50 | 34.9 | 43.8 |  | Cn1c(=O)c2c(CC(=O)Nc3nc(-c4ccc(Cl)cc4)cs3)snc2n(C)c1=O [Example 2, N-[4-(4-Chlorophenyl)-1,3-thiazol-2-yl]-2-(5,7-dimethyl-4,6-dioxo-4,5,6,7-tetrahydro[1,2]thiazolo[3,4-d]pyrimidin-3-yl)acetamide] |
| 95.5 | 99.5 | < 50 | 68.5 | 98.3 | > 100 | Cn1c(=O)c2c(CC(=O)Nc3nc(-c4ccc(F)c(OC(F)(F)F)c4)cs3)snc2n(C)c1=O [Example 3, 2-(5,7-Dimethyl-4,6-dioxo-4,5,6,7-tetrahydro[1,2]thiazolo[3,4-d]pyrimidin-3-yl)-N-{4-[4-fluoro-3-(trifluoromethoxy)phenyl]-1,3-thiazol-2-yl}acetamide] |
| 99.3 | 99.6 | < 50 | 97.3 | 99.3 | > 100 | Cn1c(=O)c2c(CC(=O)Nc3nc(-c4ccc(Cl)c(C(F)(F)F)c4)cs3)snc2n(C)c1=O [Example 6, 2-(5,7-Dimethyl-4,6-dioxo-4,5,6,7-tetrahydro[1,2]thiazolo[3,4-c]pyrimidin-3-yl)-N-{4-[4-chloro-3-(trifluoromethyl)phenyl]-1,3-thiazol-2-yl}acetamide] |
| 100 | 100 | < 50 | 22.9 | 39.7 |  | Cn1c(=O)c2c(CC(=O)Nc3ccn(-c4ccc(Br)cc4)n3)snc2n(C)c1=O [Example 11, N-[1-(4-Bromophenyl)-1H-pyrazol-3-yl]-2-(5,7-dimethyl-4,6-dioxo-4,5,6,7-tetrahydro[1,2]thiazolo[3,4-d]pyrimidin-3-yl)acetamide] |
| 100 | 100 | < 50 | 98.3 | 100 |  | Cn1c(=O)c2c(CC(=O)Nc3nc(-c4cc(F)cc(C(F)(F)F)c4)cs3)nsc2n(C)c1=O [Example 22, 2-(5,7-Dimethyl-4,6-dioxo-4,5,6,7-tetrahydro[1,2]thiazolo[5,4-d]pyrimidin-3-yl)-N-{4-[3-fluoro-5-(trifluoromethyl)phenyl]-1,3-thiazol-2-yl}acetamide] |
